Values joined by “and” are separate entries in the source; they are usually repeats but may differ in a detail not shown here. Identical values can stand only once. Counter-ions that a name gives are not always drawn.
Legend:
[1] = Formation of formazan dyes: control buffer, malate and 1-Methoxy PMS (TABLE 22); assay type: biochemical
[2] = test system: diaphorase; assay: Formation of formazan dyes: only diaphorase and malate (TABLE 14); assay type: biochemical, Clostridium kluyveri; details: mean of three experiments
[3] = test system: oral lavage; assay: Formation of formazan dyes: oral lavage, malate and diaphorase (TABLE 12); assay type: biochemical, human; details: oral lavage, malate and diaphorase
[4] = Formation of formazan dyes: NADH, malate and 1-methoxy PMS (TABLE 16); assay type: biochemical
[5] = test system: diaphorase; assay: Formation of formazan dyes: NADH and diaphorase, absence of malate (TABLE 7); assay type: biochemical, Clostridium kluyveri; details: NADH and diaphorase, absence of malate
[6] = Formation of formazan dyes: control buffer and 1-Methoxy PMS, absence of malate (TABLE 21); assay type: biochemical
[7] = test system: diaphorase; assay: Formation of formazan dyes: NADH, diaphorase and malate (TABLE 8); assay type: biochemical, Clostridium kluyveri; details: NADH, diaphorase and malate
[8] = test system: Malate dehydrogenase and diaphorase; assay: Formation of formazan dyes: Malate dehydrogenase, diaphorase and malate (TABLE 10); assay type: biochemical, pig heart
[9] = biological target: T1, Malate dehydrogenase (Sus scrofa, UniProt P00346); assay: Formation of formazan dyes: Malate dehydrogenase and 1-Methoxy PMS, absence of malate (TABLE 17); assay type: biochemical, pig heart; parameters: L-malate dehydrogenase (pig heart); purchased Sigma-Aldrich 10127248001 / 10127914001
T1 sequence (P00346 25-338): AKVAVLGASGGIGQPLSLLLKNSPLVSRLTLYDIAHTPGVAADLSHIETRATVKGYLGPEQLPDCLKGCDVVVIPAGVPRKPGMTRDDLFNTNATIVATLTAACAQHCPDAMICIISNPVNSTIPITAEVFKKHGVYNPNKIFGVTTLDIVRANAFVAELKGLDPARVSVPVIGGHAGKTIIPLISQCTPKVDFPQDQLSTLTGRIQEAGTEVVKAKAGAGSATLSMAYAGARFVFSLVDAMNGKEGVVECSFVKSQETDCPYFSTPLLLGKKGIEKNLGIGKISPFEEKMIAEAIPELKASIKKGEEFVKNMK

[10] = test system: Malate dehydrogenase and diaphorase; assay: Formation of formazan dyes: Malate dehydrogenase and diaphorase, absence of malate (TABLE 9); assay type: biochemical, pig heart
[11] = test system: oral lavage; assay: Formation of formazan dyes: oral lavage and diaphorase, not malate (TABLE 11); assay type: biochemical, human
[12] = biological target: T1, Malate dehydrogenase; assay: Formation of formazan dyes: Malate dehydrogenase, malate and 1-Methoxy PMS (TABLE 18); assay type: biochemical, pig heart; parameters: L-malate dehydrogenase (pig heart); purchased Sigma-Aldrich 10127248001 / 10127914001
[13] = test system: diaphorase; assay: Formation of formazan dyes: only diaphorase, not malate (TABLE 13); assay type: biochemical, Clostridium kluyveri; details: mean of three experiments

COc1cc([N+](=O)[O-])c(S(=O)(=O)[O-])cc1-n1nc(C(=O)Nc2ccccc2)n[n+]1-c1cc(S(=O)(=O)O)c([N+](=O)[O-])cc1OC [XTT, 2,3-Bis(2-methoxy-4-nitro-5-sulfophenyl)-2H-tetrazolium-5-carboxanilide inner salt]
Means absorbance 0 h [1]: 0.42 | Means absorbance 1 h [1]: 0.48 | Means absorbance 2 h [1]: 0.53 | Means absorbance 3 h [1]: 0.59 | Means absorbance 4 h [1]: 0.60 | Means absorbance 6 h [1]: 0.77 | Means absorbance 8 h [1]: 0.91 | Means absorbance 10 h [1]: 1.03 | Means absorbance 12 h [1]: 1.17 | Absorbance, formation of formazan dyes (Means) ([2]; 0 h): 0.39 | Absorbance, formation of formazan dyes (Means) ([2]; 1 h): 0.45 | Absorbance, formation of formazan dyes (Means) ([2]; 2 h): 0.48 | Absorbance, formation of formazan dyes (Means) ([2]; 3 h): 0.53 | Absorbance, formation of formazan dyes (Means) ([2]; 4 h): 0.52 | Absorbance, formation of formazan dyes (Means) ([2]; 6 h): 0.57 | Absorbance, formation of formazan dyes (Means) ([2]; 8 h): 0.63 | Absorbance, formation of formazan dyes (Means) ([2]; 10 h): 0.69 | Absorbance, formation of formazan dyes (Means) ([2]; 12 h): 0.73 | Formation of formazan dyes, absorbance, Means 0 h ([3]; 0 h): 0.75 | Formation of formazan dyes, absorbance, Means 1 h ([3]; 1 h): 0.88 | Formation of formazan dyes, absorbance, Means 2 h ([3]; 2 h): 0.94 | Formation of formazan dyes, absorbance, Means 3 h ([3]; 3 h): 0.98 | Formation of formazan dyes, absorbance, Means 4 h ([3]; 4 h): 1.19 | Formation of formazan dyes, absorbance, Means 6 h ([3]; 6 h): 1.41 | Formation of formazan dyes, absorbance, Means 8 h ([3]; 8 h): 1.73 | Formation of formazan dyes, absorbance, Means 10 h ([3]; 10 h): 1.90 | Formation of formazan dyes, absorbance, Means 12 h ([3]; 12 h): 2.08 | Absorbance, formation of formazan dyes (Means) [4]: 1.51 and 1.56 and 1.61 and 1.67 and 1.80 and 1.94 and 2.02 and 2.15 | Formation of formazan dyes, absorbance, Means 0 h ([5]; 0 h): 2.22 | Formation of formazan dyes, absorbance, Means 1 h ([5]; 1 h): 2.35 | Formation of formazan dyes, absorbance, Means 2 h ([5]; 2 h): 2.36 | Formation of formazan dyes, absorbance, Means 3 h ([5]; 3 h): 2.32 | Formation of formazan dyes, absorbance, Means 4 h ([5]; 4 h): 2.40 | Formation of formazan dyes, absorbance, Means 6 h ([5]; 6 h): 2.39 | Formation of formazan dyes, absorbance, Means 8 h ([5]; 8 h): 2.45 | Formation of formazan dyes, absorbance, Means 10 h ([5]; 10 h): 2.45 | Formation of formazan dyes, absorbance, Means 12 h ([5]; 12 h): 2.46 | conversion into colored formazan dyes in assay buffer containing 1-methoxy PMS [6]: slowly catalyze the conversion of tetrazolium salts into colored formazan dyes | Formation of formazan dyes, absorbance, Means 0 h ([7]; 0 h): 1.95 | Formation of formazan dyes, absorbance, Means 1 h ([7]; 1 h): 2.20 | Formation of formazan dyes, absorbance, Means 2 h ([7]; 2 h): 2.18 | Formation of formazan dyes, absorbance, Means 3 h ([7]; 3 h): 2.17 | Formation of formazan dyes, absorbance, Means 4 h ([7]; 4 h): 2.23 | Formation of formazan dyes, absorbance, Means 6 h ([7]; 6 h): 2.28 | Formation of formazan dyes, absorbance, Means 8 h ([7]; 8 h): 2.33 | Formation of formazan dyes, absorbance, Means 10 h ([7]; 10 h): 2.41 | Formation of formazan dyes, absorbance, Means 12 h ([7]; 12 h): 2.45 | Formation of formazan dyes, absorbance, Means 0 h ([8]; Malate dehydrogenase, diaphorase and malate, 0 h): 1.21 | Formation of formazan dyes, absorbance, Means 1 h ([8]; Malate dehydrogenase, diaphorase and malate, 1 h): 1.98 | Formation of formazan dyes, absorbance, Means 2 h ([8]; Malate dehydrogenase, diaphorase and malate, 2 h): 2.41 | Formation of formazan dyes, absorbance, Means 3 h ([8]; Malate dehydrogenase, diaphorase and malate, 3 h): 2.71 | Formation of formazan dyes, absorbance, Means 4 h ([8]; Malate dehydrogenase, diaphorase and malate, 4 h): 3.02 | Formation of formazan dyes, absorbance, Means 6 h ([8]; Malate dehydrogenase, diaphorase and malate, 6 h): 3.54 | Formation of formazan dyes, absorbance, Means 8 h ([8]; Malate dehydrogenase, diaphorase and malate, 8 h): 3.86 | Formation of formazan dyes, absorbance, Means 10 h ([8]; Malate dehydrogenase, diaphorase and malate, 10 h): 3.90 | Formation of formazan dyes, absorbance, Means 12 h ([8]; Malate dehydrogenase, diaphorase and malate, 12 h): 3.80 | conversion to reduced formazan dyes ([8]; malate dehydrogenase, diaphorase and malate (TABLE 10)): converted to reduced formazan dyes in a time-dependent manner | Absorbance, formation of formazan dyes (Means) [9]: 0.61 and 0.72 and 0.80 and 0.82 and 0.84 and 0.85 and 0.91 and 0.93 | Formation of formazan dyes, absorbance, Means 0 h ([10]; Malate dehydrogenase and diaphorase, absence of malate, 0 h): 0.39 | Formation of formazan dyes, absorbance, Means 1 h ([10]; Malate dehydrogenase and diaphorase, absence of malate, 1 h): 0.44 | Formation of formazan dyes, absorbance, Means 2 h ([10]; Malate dehydrogenase and diaphorase, absence of malate, 2 h): 0.46 | Formation of formazan dyes, absorbance, Means 3 h ([10]; Malate dehydrogenase and diaphorase, absence of malate, 3 h): 0.50 | Formation of formazan dyes, absorbance, Means 4 h ([10]; Malate dehydrogenase and diaphorase, absence of malate, 4 h): 0.50 | Formation of formazan dyes, absorbance, Means 6 h ([10]; Malate dehydrogenase and diaphorase, absence of malate, 6 h): 0.54 | Formation of formazan dyes, absorbance, Means 8 h ([10]; Malate dehydrogenase and diaphorase, absence of malate, 8 h): 0.57 | Formation of formazan dyes, absorbance, Means 10 h ([10]; Malate dehydrogenase and diaphorase, absence of malate, 10 h): 0.58 | Formation of formazan dyes, absorbance, Means 12 h ([10]; Malate dehydrogenase and diaphorase, absence of malate, 12 h): 0.66 | reduction of tetrazolium dye in the absence of substrate malate ([10]; malate dehydrogenase and diaphorase (TABLE 9)): remained largely in oxidized forms | Formation of formazan dyes, absorbance, Means 0 h ([11]; oral lavage and diaphorase, not malate, 0 h): 0.80 | Formation of formazan dyes, absorbance, Means 1 h ([11]; oral lavage and diaphorase, not malate, 1 h): 0.98 | Formation of formazan dyes, absorbance, Means 2 h ([11]; oral lavage and diaphorase, not malate, 2 h): 1.04 | Formation of formazan dyes, absorbance, Means 3 h ([11]; oral lavage and diaphorase, not malate, 3 h): 0.99 | Formation of formazan dyes, absorbance, Means 4 h ([11]; oral lavage and diaphorase, not malate, 4 h): 1.18 | Formation of formazan dyes, absorbance, Means 6 h ([11]; oral lavage and diaphorase, not malate, 6 h): 1.24 | Formation of formazan dyes, absorbance, Means 8 h ([11]; oral lavage and diaphorase, not malate, 8 h): 1.26 | Formation of formazan dyes, absorbance, Means 10 h ([11]; oral lavage and diaphorase, not malate, 10 h): 1.27 | Formation of formazan dyes, absorbance, Means 12 h ([11]; oral lavage and diaphorase, not malate, 12 h): 1.28 | reduction to formazan dyes by pooled oral lavage ([11]; pooled oral lavage of high bleeder group, diaphorase, no added malate (TABLE 11)): changed to formazan dyes in a significant amount | Absorbance, formation of formazan dyes (Means) [12]: 2.09 and 3.28 and 3.71 and 3.96 and 4.00 | Absorbance, formation of formazan dyes (Means) ([13]; 0 h): 0.41 | Absorbance, formation of formazan dyes (Means) ([13]; 1 h): 0.49 | Absorbance, formation of formazan dyes (Means) ([13]; 2 h): 0.52 | Absorbance, formation of formazan dyes (Means) ([13]; 3 h): 0.54 | Absorbance, formation of formazan dyes (Means) ([13]; 4 h): 0.54 | Absorbance, formation of formazan dyes (Means) ([13]; 6 h): 0.60 | Absorbance, formation of formazan dyes (Means) ([13]; 8 h): 0.63 | Absorbance, formation of formazan dyes (Means) ([13]; 10 h): 0.64 | Absorbance, formation of formazan dyes (Means) ([13]; 12 h): 0.67

— US20180320217A1, “METHODS FOR SAMPLING AND MEASURING ORAL LAVAGE PROTEINS” (The Procter & Gamble Company, priority 2017, published 2018)
